In ChEMBL document CHEMBL4138254 (ACS Med Chem Lett, 2017):
Converted amounts (≈) assume the structure as drawn. One block for each compound: values may come before it.

Experiments:
physchem [1] = conditions: pH 6.8 buffer solution
Description: Aqueous solubility of the compound in pH 6.8 buffer solution after 24 hrs by LC-UV analysis

Autotaxin [2] = target: T1, Autotaxin (Rattus norvegicus, UniProt Q64610); test: Inhibition of ATX in rat whole blood using LPA 17:0 as substrate after 1 hr by LC-MS/MS analysis
Autotaxin [3] = target: T1, Autotaxin; test: Inhibition of recombinant rat ATX using LPC 18:1 as substrate after 2 hrs by rapidfire/MS-based analysis
physchem [4] = conditions: pH 4.5 buffer solution
Description: Aqueous solubility of the compound in pH 4.5 buffer solution after 24 hrs by LC-UV analysis

in vitro [5] = conditions: rat, liver microsomes
Description: Clearance in rat liver microsomes at 1 uM in presence of NADPH by LC-MS/MS analysis relative to hepatic blood flow

[6] = target: Voltage-gated inwardly rectifying potassium channel KCNH2 (Homo sapiens, UniProt Q12809)
Description: Inhibition of human ERG expressed in HEK293 cells by patch clamp assay

physchem [7] = conditions: pH 2.2 buffer solution
Description: Aqueous solubility of the compound in pH 2.2 buffer solution after 24 hrs by LC-UV analysis

in vitro [8] = conditions: human, Caco-2
Description: Apparent permeability across apical to basolateral side in human Caco2 cells at 10 uM measured up to 90 mins

in vitro [9] = conditions: human, liver microsomes
Description: Clearance in human liver microsomes at 1 uM in presence of NADPH by LC-MS/MS analysis relative to hepatic blood flow

[10] = Protein binding in human plasma; assay type: ADME, cell-free; conditions: read-out: PPB
[11] = Tmax in Han Wistar rat at 10 mg/kg, po; assay type: ADME, organism-based; conditions: in vivo
[12] = Oral bioavailability in Han Wistar rat at 10 mg/kg; assay type: ADME, organism-based; conditions: in vivo
Rattus norvegicus [13] = test: Dose normalized Cmax in Han Wistar rat at 10 mg/kg, po; assay type: ADME, organism-based; conditions: in vivo
Rattus norvegicus [14] = test: Dose normalized AUC in Han Wistar rat at 1 mg/kg, iv; assay type: ADME, organism-based; conditions: in vivo
[15] = Half life in Han Wistar rat at 1 mg/kg, iv; assay type: ADME, organism-based; conditions: in vivo
Rattus norvegicus [16] = test: In vivo inhibition of ATX in Han Wistar rat assessed as decrease in plasma LPA species level measured up to 24 hrs by LC-MS/MS analysis; assay type: functional, organism-based
Rattus norvegicus [17] = test: In vivo inhibition of ATX in Han Wistar rat assessed as decrease in plasma LPA 20:4 species level measured up to 24 hrs by LC-MS/MS analysis relative to control; assay type: functional
Homo sapiens = species: Homo sapiens; test: Inhibition of sodium channel site 2 (unknown origin) at 10 uM relative to control
Rattus norvegicus [18] = test: In vivo inhibition of ATX in Han Wistar rat assessed as decrease in plasma LPA 16:0 species level measured up to 24 hrs by LC-MS/MS analysis relative to control; assay type: functional
Rattus norvegicus [19] = test: In vivo inhibition of ATX in Han Wistar rat assessed as decrease in plasma LPA 18:0 species level measured up to 24 hrs by LC-MS/MS analysis relative to control; assay type: functional
L-type calcium channel = L-type calcium channel (Homo sapiens, UniProt O60840+Q01668+Q13698+Q13936); test: Inhibition of L-type calcium channel (unknown origin) at 10 uM relative to control; assay type: protein assay
Rattus norvegicus [20] = test: Clearance in Han Wistar rat at 1 mg/kg, iv relative to hepatic blood flow; assay type: ADME, organism-based; conditions: in vivo
[21] = Half life in Han Wistar rat at 10 mg/kg, po; assay type: ADME, organism-based; conditions: in vivo
Rattus norvegicus [22] = test: In vivo inhibition of ATX in Han Wistar rat assessed as decrease in plasma LPA 18:1 species level measured up to 24 hrs by LC-MS/MS analysis relative to control; assay type: functional
[23] = Protein binding in rat plasma; assay type: ADME, cell-free; conditions: read-out: PPB
Rattus norvegicus [24] = test: Dose normalized AUC in Han Wistar rat at 10 mg/kg, po; assay type: ADME, organism-based; conditions: in vivo
Rattus norvegicus [25] = test: In vivo inhibition of ATX in Han Wistar rat assessed as decrease in plasma LPA 18:2 species level measured up to 24 hrs by LC-MS/MS analysis relative to control; assay type: functional
[26] = Volume of distribution at steady state in Han Wistar rat at 1 mg/kg, iv; assay type: ADME, organism-based; conditions: in vivo, read-out: Vdss
[27] = target: Sodium-dependent noradrenaline transporter (Homo sapiens) (UniProt P23975); test: Inhibition of norepinephrine transporter (unknown origin) at 10 uM relative to control
[28] = target: 5-hydroxytryptamine receptor 2A (Homo sapiens) (UniProt P28223); test: Inhibition of recombinant human 5-HT2A receptor at 10 uM after 60 mins by scintillation counting analysis relative to control
Chain of 5-hydroxytryptamine receptor 2A (Homo sapiens) (P28223 whole entry): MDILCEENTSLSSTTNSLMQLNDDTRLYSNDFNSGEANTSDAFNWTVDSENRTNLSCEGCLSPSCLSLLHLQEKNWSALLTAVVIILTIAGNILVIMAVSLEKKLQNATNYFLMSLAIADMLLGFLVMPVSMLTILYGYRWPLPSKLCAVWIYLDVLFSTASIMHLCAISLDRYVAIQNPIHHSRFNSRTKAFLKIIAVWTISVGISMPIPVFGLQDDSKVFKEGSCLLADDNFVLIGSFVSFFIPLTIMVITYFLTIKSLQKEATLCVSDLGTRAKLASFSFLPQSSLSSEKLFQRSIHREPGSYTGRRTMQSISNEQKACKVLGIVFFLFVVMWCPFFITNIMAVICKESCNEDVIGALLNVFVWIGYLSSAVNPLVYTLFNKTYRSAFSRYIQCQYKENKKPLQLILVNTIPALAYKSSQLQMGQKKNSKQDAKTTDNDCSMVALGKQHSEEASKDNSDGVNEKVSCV

Chain of Voltage-gated inwardly rectifying potassium channel KCNH2 (Q12809 whole entry): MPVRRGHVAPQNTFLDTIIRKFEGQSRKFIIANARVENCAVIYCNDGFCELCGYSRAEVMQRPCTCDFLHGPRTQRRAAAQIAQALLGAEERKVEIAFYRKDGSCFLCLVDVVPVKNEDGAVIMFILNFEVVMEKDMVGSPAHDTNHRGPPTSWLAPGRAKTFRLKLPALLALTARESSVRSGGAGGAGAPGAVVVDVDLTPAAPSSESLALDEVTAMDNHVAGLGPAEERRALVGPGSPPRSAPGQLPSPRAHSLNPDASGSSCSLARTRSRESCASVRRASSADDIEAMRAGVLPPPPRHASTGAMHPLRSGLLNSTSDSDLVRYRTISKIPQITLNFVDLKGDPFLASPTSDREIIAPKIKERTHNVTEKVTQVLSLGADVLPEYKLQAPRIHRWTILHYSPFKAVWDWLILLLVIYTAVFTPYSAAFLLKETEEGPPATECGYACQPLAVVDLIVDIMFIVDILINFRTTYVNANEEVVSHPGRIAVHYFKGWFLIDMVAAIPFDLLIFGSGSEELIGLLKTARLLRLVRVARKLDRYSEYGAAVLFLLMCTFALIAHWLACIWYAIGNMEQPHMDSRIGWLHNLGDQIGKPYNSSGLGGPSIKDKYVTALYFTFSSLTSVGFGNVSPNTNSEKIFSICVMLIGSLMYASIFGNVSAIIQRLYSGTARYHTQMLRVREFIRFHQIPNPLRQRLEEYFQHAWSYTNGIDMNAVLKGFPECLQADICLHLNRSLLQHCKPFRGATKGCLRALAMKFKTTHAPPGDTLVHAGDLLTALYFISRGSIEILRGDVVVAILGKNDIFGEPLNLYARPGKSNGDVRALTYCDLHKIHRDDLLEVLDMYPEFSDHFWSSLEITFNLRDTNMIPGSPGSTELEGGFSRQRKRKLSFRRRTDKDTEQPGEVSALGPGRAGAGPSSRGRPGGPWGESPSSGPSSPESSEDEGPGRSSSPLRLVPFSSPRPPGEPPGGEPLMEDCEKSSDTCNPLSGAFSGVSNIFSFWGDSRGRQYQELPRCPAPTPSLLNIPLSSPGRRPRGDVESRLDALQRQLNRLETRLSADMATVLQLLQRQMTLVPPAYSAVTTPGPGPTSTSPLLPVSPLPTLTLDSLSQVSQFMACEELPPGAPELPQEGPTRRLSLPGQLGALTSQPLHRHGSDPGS
Chain of Sodium-dependent noradrenaline transporter (Homo sapiens) (P23975 whole entry): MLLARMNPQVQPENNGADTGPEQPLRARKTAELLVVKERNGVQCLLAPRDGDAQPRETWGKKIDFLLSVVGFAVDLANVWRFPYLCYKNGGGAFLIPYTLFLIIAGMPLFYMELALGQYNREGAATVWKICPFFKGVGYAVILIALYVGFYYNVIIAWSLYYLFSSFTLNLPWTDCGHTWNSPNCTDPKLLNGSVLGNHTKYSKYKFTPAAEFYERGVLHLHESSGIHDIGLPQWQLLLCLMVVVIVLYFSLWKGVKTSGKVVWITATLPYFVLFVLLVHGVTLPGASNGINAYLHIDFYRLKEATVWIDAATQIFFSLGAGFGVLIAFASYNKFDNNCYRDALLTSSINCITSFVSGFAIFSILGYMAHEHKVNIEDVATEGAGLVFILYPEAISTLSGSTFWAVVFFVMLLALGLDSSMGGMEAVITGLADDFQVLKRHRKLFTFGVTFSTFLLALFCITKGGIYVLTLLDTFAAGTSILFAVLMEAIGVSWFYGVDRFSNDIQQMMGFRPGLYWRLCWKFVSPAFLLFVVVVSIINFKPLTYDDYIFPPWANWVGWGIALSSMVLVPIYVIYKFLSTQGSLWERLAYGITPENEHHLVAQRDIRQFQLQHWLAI

- solubility at 24 h (physchem [1]): < 1 µg/mL
- IC50 (Autotaxin [2]): 7 nM
- IC50 (Autotaxin [3]): 2.3 nM
- solubility at 24 h (physchem [4]): < 1 µg/mL
- hepatic extraction ratio at 1 µM (in vitro [5]): 0.88
- solubility at 24 h (physchem [7]): < 1 µg/mL
- Papp A→B at 1.5 h, 10 µM (in vitro [8]): 18 ×10⁻⁶ cm/s
- hepatic extraction ratio at 1 µM (in vitro [9]): 0.94
Structure (SMILES): O=C(NC[C@@H]1[C@H]2CN(C(=O)CCc3cc(Cl)cc(Cl)c3)C[C@@H]12)c1ccc2[nH]c(=O)oc2c1
- IC50 [6]: 8100 nM

- solubility at 24 h (physchem [1]): < 1 µg/mL
- IC50 (Autotaxin [2]): 1900 nM
- IC50 (Autotaxin [3]): 1.7 nM
- solubility at 24 h (physchem [4]): < 1 µg/mL
- hepatic extraction ratio at 1 µM (in vitro [5]): > 0.22
- solubility at 24 h (physchem [7]): < 1 µg/mL
- Papp A→B at 1.5 h, 10 µM (in vitro [8]): 38 ×10⁻⁶ cm/s
- hepatic extraction ratio at 1 µM (in vitro [9]): 0.25
Structure (SMILES): O=C(NC[C@@H]1[C@H]2CN(C(=O)/C=C/c3cc(Cl)cc(Cl)c3)C[C@@H]12)c1ccc2[nH]c(=O)oc2c1
- IC50 [6]: 4200 nM

- solubility at 24 h (physchem [1]): < 1 µg/mL
- IC50 (Autotaxin [2]): 2400 nM
- IC50 (Autotaxin [3]): 4.8 nM
- solubility at 24 h (physchem [4]): < 1 µg/mL
- hepatic extraction ratio at 1 µM (in vitro [5]): > 0.22
- solubility at 24 h (physchem [7]): < 1 µg/mL
- Papp A→B at 1.5 h, 10 µM (in vitro [8]): 64 ×10⁻⁶ cm/s
Structure (SMILES): O=C(NC[C@@H]1[C@H]2CN(C(=O)C3CC3c3cc(Cl)cc(Cl)c3)C[C@@H]12)c1ccc2[nH]c(=O)oc2c1 (stereo partly specified)
- IC50 [6]: 4700 nM

- solubility at 24 h (physchem [1]): < 1 µg/mL
- IC50 (Autotaxin [2]): 208 nM
- IC50 (Autotaxin [3]): 66.9 nM
- solubility at 24 h (physchem [4]): < 1 µg/mL
- solubility at 24 h (physchem [7]): < 1 µg/mL
- Papp A→B at 1.5 h, 10 µM (in vitro [8]): 118 ×10⁻⁶ cm/s
Structure (SMILES): CC(OC(=O)N1C[C@@H]2[C@@H](CNC(=O)c3ccc4[nH]c(=O)oc4c3)[C@@H]2C1)c1cc(Cl)cc(Cl)c1 (stereo partly specified)

- solubility at 24 h (physchem [1]): < 1 µg/mL
- IC50 (Autotaxin [2]): 4.5 nM
- IC50 (Autotaxin [3]): 2.3 nM
- solubility at 24 h (physchem [4]): < 1 µg/mL
- solubility at 24 h (physchem [7]): < 1 µg/mL
- Papp A→B at 1.5 h, 10 µM (in vitro [8]): 108 ×10⁻⁶ cm/s
Structure (SMILES): O=C(NC[C@@H]1[C@H]2CN(C(=O)OCc3cc(C(F)(F)F)cc(C(F)(F)F)c3)C[C@@H]12)c1ccc2[nH]c(=O)oc2c1

More lines, now with the values behind:

Structure (SMILES): O=C(NC[C@@H]1[C@H]2CN(C(=O)OCc3cc(C(F)(F)F)cc(C(F)(F)F)c3)C[C@@H]12)c1ccc2[nH]nnc2c1 [BI 2545]
- fraction unbound [10]: < 0.002
- Tmax [11]: 1.7 h
- bioavailability [12]: 30%
- solubility at 24 h (physchem [1]): < 1 µg/mL
- Cmax/dose (Rattus norvegicus [13]): 149 nM
- AUC/dose (Rattus norvegicus [14]): 2320 nM·h
- half-life [15]: 1.8 h
- IC50 (Rattus norvegicus [16]): 100 nM
- inhibition (INH) (Rattus norvegicus [17]): <=90%
- inhibition (Homo sapiens): 66%
- IC50 (Autotaxin [2]): 96 nM
- inhibition (INH) (Rattus norvegicus [18]): <=90%
- inhibition (INH) (Rattus norvegicus [19]): <=90%
- IC50 (Autotaxin [3]): 3.4 nM
- solubility at 24 h (physchem [4]): < 1 µg/mL
- inhibition at 10 µM (L-type calcium channel): 80%
- CL (Rattus norvegicus [20]): 10%
- IC50 [6]: > 10000 nM
- half-life [21]: 3.4 h
- solubility at 24 h (physchem [7]): < 1 µg/mL
- Papp A→B at 1.5 h, 10 µM (in vitro [8]): 9 ×10⁻⁶ cm/s
- inhibition (INH) (Rattus norvegicus [22]): <=90%
- fraction unbound [23]: < 0.002
- AUC/dose (Rattus norvegicus [24]): 675 nM·h
- inhibition (INH) (Rattus norvegicus [25]): <=90%
- Vd [26]: 0.9 L/kg
- inhibition [27]: 61%
- inhibition [28]: 55%

Structure (SMILES): N#Cc1cc(COC(=O)N2C[C@@H]3[C@@H](CNC(=O)N4CCc5[nH]nnc5C4)[C@@H]3C2)cc(C(=O)OC(F)(F)F)c1
- solubility at 24 h (physchem [1]): 5 µg/mL (≈ 9.37 µM)
- IC50 (Autotaxin [2]): 33 nM
- IC50 (Autotaxin [3]): 1.3 nM
- solubility at 24 h (physchem [4]): 26 µg/mL (≈ 48.7 µM)
- hepatic extraction ratio at 1 µM (in vitro [5]): 0.43
- IC50 [6]: > 10000 nM
- solubility at 24 h (physchem [7]): 32 µg/mL (≈ 60 µM)
- Papp A→B at 1.5 h, 10 µM (in vitro [8]): 7 ×10⁻⁶ cm/s
- hepatic extraction ratio at 1 µM (in vitro [9]): 0.44

Structure (SMILES): N#Cc1cc(COC(=O)N2C[C@@H]3[C@@H](CNC(=O)c4ccc5[nH]nnc5c4)[C@@H]3C2)cc(C(=O)OC(F)(F)F)c1
- solubility at 24 h (physchem [1]): < 1 µg/mL
- IC50 (Autotaxin [2]): 18 nM
- IC50 (Autotaxin [3]): 1.5 nM
- solubility at 24 h (physchem [4]): < 1 µg/mL
- hepatic extraction ratio at 1 µM (in vitro [5]): 0.28
- IC50 [6]: > 10000 nM
- solubility at 24 h (physchem [7]): < 1 µg/mL
- Papp A→B at 1.5 h, 10 µM (in vitro [8]): 8 ×10⁻⁶ cm/s
- hepatic extraction ratio at 1 µM (in vitro [9]): 0.29

Structure (SMILES): CC(C)(C)OC(=O)N1CCCC(COC(=O)N2C[C@@H]3[C@@H](CNC(=O)c4ccc5[nH]c(=O)oc5c4)[C@@H]3C2)C1 (stereo partly specified)
- IC50 (Autotaxin [2]): 6.9 nM
- IC50 (Autotaxin [3]): 49 nM
